Values quoted from earlier work, collected in patent publication US20050281896A1, “Nutritional composition for increasing creatine uptake in skeletal muscle” (priority 2004, published 2005).

Tests used:
[1] = in vivo
[2] = target: angiotensin converting enzyme (ACE) (Homo sapiens, UniProt P12821)
angiotensin converting enzyme (ACE), sequence (P12821 30-1306, species assumed): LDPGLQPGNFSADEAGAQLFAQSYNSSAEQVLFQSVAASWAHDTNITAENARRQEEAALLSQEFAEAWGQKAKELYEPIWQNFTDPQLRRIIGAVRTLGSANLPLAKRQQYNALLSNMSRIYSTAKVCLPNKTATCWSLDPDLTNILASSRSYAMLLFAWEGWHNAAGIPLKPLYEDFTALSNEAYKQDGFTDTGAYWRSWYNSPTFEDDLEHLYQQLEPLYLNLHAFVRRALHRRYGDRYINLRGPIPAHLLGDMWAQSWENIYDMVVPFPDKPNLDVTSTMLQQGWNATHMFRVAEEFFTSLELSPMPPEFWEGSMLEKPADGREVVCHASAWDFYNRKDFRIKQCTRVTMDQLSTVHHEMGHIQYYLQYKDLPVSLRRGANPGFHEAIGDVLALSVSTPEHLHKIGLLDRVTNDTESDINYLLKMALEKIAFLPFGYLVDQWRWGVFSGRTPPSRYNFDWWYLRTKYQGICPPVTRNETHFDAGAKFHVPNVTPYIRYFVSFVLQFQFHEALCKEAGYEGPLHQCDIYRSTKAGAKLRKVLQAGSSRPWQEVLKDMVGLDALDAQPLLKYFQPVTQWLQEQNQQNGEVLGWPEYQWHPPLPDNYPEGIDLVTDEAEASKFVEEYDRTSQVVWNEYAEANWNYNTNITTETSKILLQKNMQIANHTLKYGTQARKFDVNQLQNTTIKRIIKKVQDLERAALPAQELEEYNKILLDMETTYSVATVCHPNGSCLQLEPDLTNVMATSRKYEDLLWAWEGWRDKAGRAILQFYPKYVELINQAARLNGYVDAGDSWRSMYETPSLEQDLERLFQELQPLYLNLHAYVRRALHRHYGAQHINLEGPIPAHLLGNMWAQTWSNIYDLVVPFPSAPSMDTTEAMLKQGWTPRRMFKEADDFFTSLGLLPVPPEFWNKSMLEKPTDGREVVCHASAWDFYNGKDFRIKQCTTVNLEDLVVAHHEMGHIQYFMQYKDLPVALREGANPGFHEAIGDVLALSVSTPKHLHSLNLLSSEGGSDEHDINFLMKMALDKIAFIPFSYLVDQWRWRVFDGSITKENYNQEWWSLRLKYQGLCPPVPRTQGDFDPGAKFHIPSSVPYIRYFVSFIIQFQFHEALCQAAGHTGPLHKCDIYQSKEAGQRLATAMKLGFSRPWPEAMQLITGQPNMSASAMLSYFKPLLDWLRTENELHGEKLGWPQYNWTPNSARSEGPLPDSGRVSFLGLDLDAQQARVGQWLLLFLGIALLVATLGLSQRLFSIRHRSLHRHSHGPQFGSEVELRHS

Row | effect on angiotensin converting enzyme (ACE) [2] | SMILES | increase of the metabolic clearance rate of glucose (diabetics) [%] | body's utilization of blood sugar (type II diabetics) | effect on blood pressure [1]
1 | – | O=C(O)CCCC[C@@H]1CCSS1 (stereo in doubt) [alpha lipoic acid, 1,2-dithiolane-3-pentanoic acid] | 50 | significantly increase | –
2 | inhibition | O=C(/C=C/c1ccc(O)c(O)c1)c1ccc(O)cc1O [butein, 3,4,2′,4′-tetrahydroxychalcone] | – | – | hypotensive effects
